Columns and labels:
hMCH-1R = molecular target: T1, hMCH-1R (Homo sapiens, UniProt Q99705); experiment: MCH-1 receptor binding test (125I-MCH binding to membranes of hMCH-1R transfected CHO/Galpha16 cells); details: competition with 100 pM 125I-MCH, membranes of CHO/Galpha16 cells stably transfected with hMCH-1R
T1 construct: expressed in transfected cells
Protocol: Membranes from CHO/Galpha16 cells stably transfected with human hMCH-1R are resuspended using a syringe (needle 0.6×25 mm) and diluted in test buffer (50 mM HEPES, 10 mM MgCl2, 2 mM EGTA, pH 7.00; 0.1% bovine serum albumin (protease-free), 0.021% bacitracin, 1 μg/mL aprotinin, 1 μg/mL leupeptin, and 1 μM phosphoramidone) to a concentration of 5 to 15 μg/mL.
After the incubation the reaction is filtered using a cell harvester through 0.5% PEI treated fiberglass filters (GF/B, Unifilter Packard). The membrane-bound radioactivity retained on the filter is then determined after the addition of scintillator substance (Packard Microscint 20) in a measuring device (TopCount of Packard).
The analysis of the concentration binding curve is carried out on the assumption of one receptor binding site.

T1 sequence (Q99705 whole entry): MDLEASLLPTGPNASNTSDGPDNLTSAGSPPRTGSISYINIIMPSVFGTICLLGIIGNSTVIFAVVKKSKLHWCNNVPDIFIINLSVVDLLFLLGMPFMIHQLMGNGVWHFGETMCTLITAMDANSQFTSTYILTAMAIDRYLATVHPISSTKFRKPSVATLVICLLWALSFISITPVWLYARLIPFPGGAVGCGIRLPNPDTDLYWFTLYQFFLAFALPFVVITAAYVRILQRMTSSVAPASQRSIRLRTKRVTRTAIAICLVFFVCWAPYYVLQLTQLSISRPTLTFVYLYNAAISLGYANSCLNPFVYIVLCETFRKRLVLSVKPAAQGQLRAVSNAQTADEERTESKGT

melting point [°C]	IC50 (hMCH-1R) [nM]	SMILES
131 to 135	–	COC(=O)c1cc(NC(=O)CC(=O)c2ccc(-c3ccccc3)cc2)ccc1OCCN1CCCC1 [Example 1.9, methyl 5-(3-biphenyl-4-yl-3-oxopropionylamino)-2-(2-pyrrolidin-1-ylethoxy)benzoate]
236 to 240	–	O=C(CC(=O)c1ccc(-c2ccccc2)cc1)Nc1ccc(OCCN2CCCC2)c(C(=O)O)c1 [Example 8, 5-(3-biphenyl-4-yl-3-oxopropionylamino)-2-(2-pyrrolidin-1-ylethoxy)benzoic acid]

More lines, now with the values behind:

SMILES	melting point [°C]	IC50 (hMCH-1R) [nM]
CC1CCN(CCOc2ccc(NC(=O)CC(=O)c3ccc(-c4ccccc4)cc3)cc2Cl)CC1 [Example 1, 3-biphenyl-4-yl-N-{3-chloro-4-[2-(4-methylpiperidin-1-yl)ethoxy]phenyl}-3-oxopropionamide]	135 to 139	–
O=C(CC(=O)c1ccc(-c2ccccc2)cc1)NCCc1ccc(CN2CCCC2)cc1 [Example 5.1]	121 to 125	63.7
CCN(CC)CCOc1ccc(NC(=O)CC(=O)c2ccc(-c3ccccc3)cc2)cc1Cl [Example 7, 3-biphenyl-4-yl-N-[3-chloro-4-(2-diethylaminoethoxy)phenyl]-3-oxopropionamide]	148 to 151	–
CCN(CC)CCOc1ccc(NC(=O)CC(=O)c2ccc(C(F)(F)F)cc2Cl)cc1Cl [Example 7.1]	–	34.8

Source: patent US7605176B2 (Boehringer Ingelheim International GmbH, priority 2004, dated 2009)
